Molecular target: T1, recombinant c-Myc/Max (Homo sapiens, UniProt P01106+P61244)
T1 construct: made in house
Test: Electrophoretic mobility shift assay (EMSA): inhibitory activity on DNA binding of recombinant c-Myc/Max
Settings: read-out: protein assay IC50
Experimental: 1) Preparation of Recombinant c-Myc and Max Proteins
Recombinant proteins were prepared as described in the following references: K. C. Jung et al., Fatty Acids, Inhibitors for the DNA Binding of c-Myc/Max Dimer, Suppress Proliferation and Induce Apoptosis of Differentiated HL-60 Human Leukemia Cell, Leukemia, 2006, 20(1), 122-7 or Kyung-Chae Jeong et al., Small-Molecule Inhibitors of c-Myc Transcriptional Factor Suppress Proliferation and Induce Apoptosis of Promyelocytic Leukemia Cell via Cell Cycle Arrest, Mol. BioSyst., 2010, 6, 1503-1509.
2) Electrophoretic Mobility Shift Assay (EMSA)
The inhibitory activity of each candidate compound on DNA binding of recombinant c-Myc/Max was measured using an electrophoretic mobility shift assay (EMSA). The ratio of protein-DNA complexes in each sample was evaluated by measuring band intensity. The oligonucleotides (E-box) corresponding to the consensus binding site of Myc/Max were dimerized through an annealing process. The protein mixture was incubated at room temperature for 5 minutes, and a DMSO solution containing each candidate compound was added thereto. The mixture was further incubated for 5 minutes, and the biotinylated DNA was added. To achieve a state of equilibrium, the final mixture was incubated at room temperature for 10 minutes. The protein-DNA complexes were separated from unbound free DNA by pre-electrophoresis using 8% polyacrylamide gel and 1×TBE buffer. After pre-electrophoresis, electrophoresis was performed at 120 V for 1 hour in 1×TBE buffer. Each band was visualized using HRP-conjugated streptavidin and an ECL solution, and band intensity was measured using image analysis software.

T1 sequence (P01106 whole entry): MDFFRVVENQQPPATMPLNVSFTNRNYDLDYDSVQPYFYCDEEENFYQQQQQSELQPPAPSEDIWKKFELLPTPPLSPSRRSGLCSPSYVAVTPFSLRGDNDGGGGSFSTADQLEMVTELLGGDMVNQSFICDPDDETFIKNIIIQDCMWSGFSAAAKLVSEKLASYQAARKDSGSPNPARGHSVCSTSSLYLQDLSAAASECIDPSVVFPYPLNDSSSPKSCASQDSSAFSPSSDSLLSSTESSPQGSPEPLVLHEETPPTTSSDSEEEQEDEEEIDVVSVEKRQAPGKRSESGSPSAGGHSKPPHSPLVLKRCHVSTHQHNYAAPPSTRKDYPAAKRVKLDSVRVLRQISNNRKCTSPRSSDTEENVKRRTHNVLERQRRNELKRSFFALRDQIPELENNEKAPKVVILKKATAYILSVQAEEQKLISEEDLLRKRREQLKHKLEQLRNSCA
T1 sequence (P61244 whole entry): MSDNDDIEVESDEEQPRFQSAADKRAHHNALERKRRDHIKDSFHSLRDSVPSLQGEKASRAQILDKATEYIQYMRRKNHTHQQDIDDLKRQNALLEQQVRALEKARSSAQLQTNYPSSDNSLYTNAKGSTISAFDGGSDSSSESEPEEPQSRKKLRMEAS

| SMILES | IC50 [µM] |
| --- | --- |
| CC(=O)c1c([S+]([O-])Cc2ccc(C(F)(F)F)o2)[nH]c2c(Br)ccc(Cl)c2c1=O (centres unmarked) [Compound 72, 3-acetyl-8-bromo-5-chloro-2-(((5-(trifluoromethyl)furan-2-yl)methyl)sulfinyl)quinolin-4(1H)-one] | < 1 |
| CC(=O)c1c([S+]([O-])Cc2nonc2C)[nH]c2c(Br)ccc(Cl)c2c1=O (centres unmarked) [Compound 106, 3-acetyl-8-bromo-5-chloro-2-(((4-methyl-1,2,5-oxadiazol-3-yl)methyl)sulfinyl)quinolin-4(1H)-one] | < 1 |
| COC(=O)c1ccc(C[S+]([O-])c2[nH]c3c(Cl)ccc(Cl)c3c(=O)c2C(C)=O)cc1 (centres unmarked) [Compound 91, methyl 4-(((3-acetyl-5,8-dichloro-4-oxo-1,4-dihydroquinolin-2-yl)sulfinyl)methyl)benzoate] | < 1 |
| CC(=O)c1c([S+]([O-])Cc2ccc(-n3cccn3)nc2)[nH]c2c(Br)ccc(Cl)c2c1=O (centres unmarked) [Compound 99, 2-(((6-(1H-pyrazol-1-yl)pyridin-3-yl)methyl)sulfinyl)-3-acetyl-8-bromo-5-chloroquinolin-4(1H)-one] | < 1 |
| CC(=O)c1c([S+](C)[O-])n(S(=O)(=O)c2ccc(C(C)(C)C)cc2)c2c(Br)ccc(Cl)c2c1=O (centres unmarked) [Compound 42, 3-acetyl-8-bromo-1-((4-(tert-butyl)phenyl)sulfonyl)-5-chloro-2-(methylsulfinyl)quinolin-4(1H)-one] | < 1 |
| CC(=O)c1c(SCc2ccc(F)c(Cl)c2)[nH]c2c(Br)ccc(Cl)c2c1=O [Compound 30, 3-acetyl-8-bromo-5-chloro-2-((3-chloro-4-fluorobenzyl)thio)quinolin-4(1H)-one] | < 1 |
| CC(=O)c1c([S+]([O-])c2ccc(Br)cc2)[nH]c2c(Br)ccc(Cl)c2c1=O (centres unmarked) [Compound 17, 3-acetyl-8-bromo-2-((4-bromophenyl)sulfinyl)-5-chloroquinolin-4(1H)-one] | < 1 |
| COc1cc(S(F)(F)(F)(F)F)ccc1C[S+]([O-])c1[nH]c2c(Br)ccc(Cl)c2c(=O)c1C(C)=O (centres unmarked) [Compound 75, 3-acetyl-8-bromo-5-chloro-2-((2-methoxy-4-(pentafluoro-λ6-sulfanyl)benzyl)sulfinyl)quinolin-4(1H)-one] | < 1 |
| Cc1cc(C[S+]([O-])c2[nH]c3c(Cl)ccc(Cl)c3c(=O)c2C(=O)C(C)C)no1 (centres unmarked) [Compound 86, 5,8-dichloro-3-isobutyryl-2-(((5-methylisoxazol-3-yl)methyl)sulfinyl)quinolin-4(1H)-one] | < 1 |
| CC(=O)c1c([S+]([O-])Cc2ccccc2C#N)[nH]c2c(Br)ccc(Cl)c2c1=O (centres unmarked) [Compound 58, 2-(((3-acetyl-8-bromo-5-chloro-4-oxo-1,4-dihydroquinolin-2-yl)sulfinyl)methyl)benzonitrile] | < 1 |
| CC(=O)c1c([S+]([O-])CC#N)[nH]c2c(Br)ccc(Cl)c2c1=O (centres unmarked) [Compound 65, 2-((3-acetyl-8-bromo-5-chloro-4-oxo-1,4-dihydroquinolin-2-yl)sulfinyl)acetonitrile] | < 1 |
| CC(=O)c1c([S+]([O-])Cc2ccc(C#N)s2)[nH]c2c(Br)ccc(Cl)c2c1=O (centres unmarked) [Compound 98, 5-(((3-acetyl-8-bromo-5-chloro-4-oxo-1,4-dihydroquinolin-2-yl)sulfinyl)methyl)thiophene-2-carbonitrile] | < 1 |
| COc1cccc2[nH]c([S+]([O-])Cc3ccc(S(F)(F)(F)(F)F)cc3)c(C(C)=O)c(=O)c12 (centres unmarked) [Compound 93, 3-acetyl-5-methoxy-2-((4-(pentafluoro-λ6-sulfanyl)benzyl)sulfinyl)quinolin-4(1H)-one] | < 1 |
| CC(=O)c1c([S+]([O-])Cc2ccc(C(C)(C)C)cc2)[nH]c2c(Br)ccc(Cl)c2c1=O (centres unmarked) [Compound 60, 3-acetyl-8-bromo-2-((4-(tert-butyl)benzyl)sulfinyl)-5-chloroquinolin-4(1H)-one] | < 1 |
| CC(=O)c1c([S+]([O-])Cc2ccc(NS(C)(=O)=O)cc2)[nH]c2c(Br)ccc(Cl)c2c1=O (centres unmarked) [Compound 103, N-(4-(((3-acetyl-8-bromo-5-chloro-4-oxo-1,4-dihydroquinolin-2-yl)sulfinyl)methyl)phenyl)methanesulfonamide] | < 1 |
| CC(=O)c1c([S+]([O-])Cc2cccc(C#N)c2)[nH]c2c(Br)ccc(Cl)c2c1=O (centres unmarked) [Compound 28, 3-(((3-acetyl-8-bromo-5-chloro-4-oxo-1,4-dihydroquinolin-2-yl)sulfinyl)methyl)benzonitrile] | < 1 |
| CC(=O)c1c([S+]([O-])Cc2cc(Cl)ccc2Cl)[nH]c2c(Br)ccc(Cl)c2c1=O (centres unmarked) [Compound 44, 3-acetyl-8-bromo-5-chloro-2-((2,5-dichlorobenzyl)sulfinyl)quinolin-4(1H)-one] | < 1 |
| CC(=O)c1c([S+]([O-])Cc2cccc(I)c2)[nH]c2c(Br)ccc(Cl)c2c1=O (centres unmarked) [Compound 48, 3-acetyl-8-bromo-5-chloro-2-((3-iodobenzyl)sulfinyl)quinolin-4(1H)-one] | < 1 |

| SMILES | IC50 [µM] |
| --- | --- |
| COCSc1[nH]c2c(Br)ccc(Cl)c2c(=O)c1C(C)=O [Compound 61, 3-acetyl-8-bromo-5-chloro-2-((methoxymethyl)thio)quinolin-4(1H)-one] | < 1 |
| CC(=O)c1c([S+]([O-])Cc2cc(C)on2)[nH]c2c(Br)ccc(Cl)c2c1=O (centres unmarked) [Compound 51, 3-acetyl-8-bromo-5-chloro-2-(((5-methylisoxazol-3-yl)methyl)sulfinyl)quinolin-4(1H)-one] | < 1 |
| CC(=O)c1c([S+]([O-])Cc2c(F)c(F)c(F)c(F)c2F)[nH]c2c(Br)ccc(Cl)c2c1=O (centres unmarked) [Compound 78, 3-acetyl-8-bromo-5-chloro-2-(((perfluorophenyl)methyl)sulfinyl)quinolin-4(1H)-one] | < 1 |
| CC(=O)c1c([S+](C)[O-])n(Cc2ccc(F)c(Cl)c2)c2c(Br)ccc(Cl)c2c1=O (centres unmarked) [Compound 22, 3-acetyl-8-bromo-5-chloro-1-(3-chloro-4-fluorobenzyl)-2-(methylsulfinyl)quinolin-4(1H)-one] | < 1 |
| CC(=O)c1c([S+](C)[O-])n(C(C)=O)c2c(Br)ccc(Cl)c2c1=O (centres unmarked) [Compound 19, 1,1′-(8-bromo-5-chloro-2-(methylsulfinyl)-4-oxoquinoline-1,3-(4H)-diyl)bis(ethan-1-one)] | < 1 |
| CC(=O)c1c([S+](C)[O-])n(C(=O)c2ccc(Br)cc2)c2c(Br)ccc(Cl)c2c1=O (centres unmarked) [Compound 9, 3-acetyl-8-bromo-1-(4-bromobenzoyl)-5-chloro-2-(methylsulfinyl)quinolin-4(1H)-one] | < 1 |
| CC(=O)c1c([S+]([O-])c2ccccc2)[nH]c2c(Br)ccc(Cl)c2c1=O (centres unmarked) [Compound 13, 3-acetyl-8-bromo-5-chloro-2-(phenylsulfinyl)quinolin-4(1H)-one] | < 1 |
| CC(=O)c1c(SC(C)C)[nH]c2c(Br)ccc(Cl)c2c1=O [Compound 24, 3-acetyl-8-bromo-5-chloro-2-(isopropylthio)quinolin-4(1H)-one] | < 1 |
| CC(=O)c1c([S+]([O-])Cc2ccc(C#N)cc2)[nH]c2c(Br)ccc(Cl)c2c1=O (centres unmarked) [Compound 73, 4-(((3-acetyl-8-bromo-5-chloro-4-oxo-1,4-dihydroquinolin-2-yl)sulfinyl)methyl)benzonitrile] | < 1 |
| CC(=O)c1c([S+]([O-])Cc2ccccc2)nc2c(Br)ccc(Cl)c2c1O (centres unmarked) [Compound 53, 1-(2-(benzylsulfinyl)-8-bromo-5-chloro-4-hydroxyquinolin-3-yl)ethan-1-one] | < 1 |
| CC(=O)c1c([S+]([O-])Cc2cccnc2)[nH]c2c(Br)ccc(Cl)c2c1=O (centres unmarked) [Compound 84, 3-acetyl-8-bromo-5-chloro-2-((pyridin-3-ylmethyl)sulfinyl)quinolin-4(1H)-one] | < 1 |
| CSc1[nH]c2ccc(F)cc2c(=O)c1C(C)=O [Compound 8, 1-(6-fluoro-4-hydroxy-2-(methylthio)quinolin-3-yl)ethan-1-one] | < 1 |
| COc1cccc2[nH]c(SCc3ccc(S(F)(F)(F)(F)F)cc3)c(C(C)=O)c(=O)c12 [Compound 92, 3-acetyl-5-methoxy-2-((4-(pentafluoro-λ6-sulfanyl)benzyl)thio)quinolin-4(1H)-one] | < 1 |
| CSc1c(C(C)=O)c(=O)c2cc(F)ccc2n1C [Compound 7, 3-acetyl-6-fluoro-1-methyl-2-(methylthio)quinolin-4(1H)-one] | < 1 |
| CSc1c(C(C)=O)c(=O)c2c(Cl)ccc(Br)c2n1S(=O)(=O)c1ccc(C(C)(C)C)cc1 [Compound 40, 3-acetyl-8-bromo-1-((4-(tert-butyl)phenyl)sulfonyl)-5-chloro-2-(methylthio)quinolin-4(1H)-one] | < 1 |
| CC(=O)c1c([S+]([O-])Cc2ccc(C(=O)c3ccccc3)cc2)[nH]c2c(Br)ccc(Cl)c2c1=O (centres unmarked) [Compound 63, 3-acetyl-2-((4-benzoylbenzyl)sulfinyl)-8-bromo-5-chloroquinolin-4(1H)-one] | < 1 |
| CC(=O)c1c(SCc2ccccc2)nc2c(Br)ccc(Cl)c2c1O [Compound 52, 1-(2-(benzylthio)-8-bromo-5-chloro-4-hydroxyquinolin-3-yl)ethan-1-one] | < 1 |

Source: patent US9951021B2, “Compounds for inhibiting c-Myc/Max/DNA complex formation” (NATIONAL CANCER CENTER, priority 2016, dated 2018)
